Patent US11542295B2, “Use of 20-hydroxyecdysone and the derivatives thereof in the treatment of myopathies” (BIOPHYTIS, priority 2017, dated 2023)

Assays:
Assay type in all cases: in vivo, mouse
[1] = system: myh7 (beta myosin heavy chain); test: Heart mRNA expression of hypertrophy marker myh7 (semi-quantitative PCR); conditions: mdx mice, 50 mg/kg*day, two months; p<0.01
Method: Twelve-week-old […] gene pool (wild mice referred to as “C57” in the figures) and […] mdx (mouse model of Duchenne muscular dystrophy, referred to as “mdx” in the figures) male mice, produced at Charles Rivers, were used. Two groups of mdx were chronically exposed per os either to BIO101 (number of mice n=9) or to BIO103 (number of mice n=9) at a dose of 50 mg/kg*day. A group of C57 mice (number of mice n=5) and a group of mdx mice (number of mice n=15) received the vehicle, i.e. no treatment. The animals of all of the groups were tested for their functional capacity (exertion tolerance test) after two months of treatment. The exertion tolerance test consists of measuring the maximum distance travelled (in-toto activity; FIGS. 1A and 1B). […] The extract RNA is quantified by spectrophotometry then the quality thereof is verified and validated with the Experion RNA StdSens Analysis Kit (Bio-Rad). […] Finally, semi-quantitative PCR analysis was carried out using SYBR® Green (Roche), a DNA intercalating agent and a LightCycler® 480 Real Time PCR (Roche) apparatus on 384-well plates. The molecular markers measured are as follows: • CTGF and collagen I: connective tissue growth factor (CTGF) is associated with healing and with many pathological fibrotic processes including DMD (Brigstock 2010; Song Y. 2017). […]

[2] = system: tibialis anterior muscle of C57BL10 mdx mice; test: Histological study of tibialis anterior muscle stained with haematoxylin eosin (lesion profiles); conditions: 50 mg/kg*day, two months, HE staining
Method: Twelve-week-old C57BL10 gene pool (wild mice referred to as “C57” in the figures) and C57BL10 mdx (mouse model of Duchenne muscular dystrophy, referred to as “mdx” in the figures) male mice, produced at Charles Rivers, were used. Two groups of mdx were chronically exposed per os either to BIO101 (number of mice n=9) or to BIO103 (number of mice n=9) at a dose of 50 mg/kg*day. A group of C57 mice (number of mice n=5) and a group of mdx mice (number of mice n=15) received the vehicle, i.e. no treatment. The animals of all of the groups were tested for their functional capacity (exertion tolerance test) after two months of treatment. The exertion tolerance test consists of measuring the maximum distance travelled (in-toto activity; FIGS. 1A and 1B). Furthermore, measurements of the maximum absolute isometric strength of the tibialis anterior muscle (in-situ activity; FIGS. 2A and 2B) were made after two months of treatment.
An assessment of muscle fibrosis by histological study is carried out on the tibialis anterior muscle (abbreviated as TA). Histological sections (7 μm) are produced and stained either with haematoxylin eosin (HE) or with Sirius Red (SR).
An anatomopathological study of the sections of tibialis anterior muscle stained with HE makes it possible to assess the degree of muscle fibre involvement. Representative images of tibialis anterior muscle sections stained with HE obtained from C57 animals (FIG. 4A), mdx animals (FIG. 4B), mdx animals treated with BIO101 (FIG. 4C) and mdx animals treated with BIO103 (FIG. 4D) are shown. The scale bars correspond to 200 μm. The TA muscles of C57 mice show no muscle lesions (FIG. 4A). The TA muscles of untreated mdx mice show a wide diversity of lesion profiles: moderate anisocytosis with numerous necrotic fibres. […] The A sign indicates the inflammatory foci with which fibrosis is associated. […] Indeed, 67% (6 out of 9 TA muscles) of the muscles treated with BIO103 can be classified in this category.

[3] = system: tibialis anterior muscle of C57BL10 mdx mice; test: Skeletal muscle vascularisation (number of vessels per muscle fibre, anti-laminin / anti-CD31 labelling); conditions: 50 mg/kg*day per os, two months of daily exposure
Method: A quantitative vascularisation study was carried out on sections of tibialis anterior muscle (abbreviated as TA) of healthy C57 mice as well as on mdx mice treated with the vehicle and mdx mice treated with BIO101 or BIO103. Double immunofluorescence labelling is carried out, anti-laminin labelling with the function of identifying the basal membrane of the muscle fibres and anti-CD31 labelling having the function of identifying the vessel. The number of vessels per muscle fibre is quantified. The mdx animals received daily, per os, either the vehicle or BIO101 (50 mg/kg*day) or BIO103 (50 mg/kg*day).

| SMILES | expression of myh7 in heart compared to mdx animals receiving the vehicle [1] | TA muscles with minor lesion profile [2] | TA muscles with pronounced lesion profile tending towards atrophy [2] | TA muscles with pronounced lesion profile with a somewhat necrotic tendency [2] | TA muscles with severe lesion profile (large acute necrotic plaques with no regeneration) [2] | increase of the number of vessels per muscle fibre compared to untreated mdx animals (vehicle) [3] | TA muscles with pronounced lesion profile (anisocytosis, dispersed necrotic fibres and variable inflammation) [2] |
| --- | --- | --- | --- | --- | --- | --- | --- |
| CCSCC(=O)[C@H]1CC[C@@]2(O)C3=CC(=O)[C@@H]4C[C@@H](O)[C@@H](O)C[C@]4(C)C3CC[C@]12C (stereo partly drawn) [BIO103, (2S,3R,5R,10R,13R,14S,17S)-17-(2-ethylsulfanylacetyl)-2,3,14-trihydroxy-10,13-dimethyl-2,3,4,5,9,11,12,15,16,17-decahydro-1H-cyclopenta[a]phenanthren-6-one] | significantly reduces | 67% | 11% | 11% | 11% | 28.2% | – |
| CC(C)(O)CC[C@@H](O)[C@](C)(O)[C@H]1CC[C@@]2(O)C3=CC(=O)[C@@H]4C[C@@H](O)[C@@H](O)C[C@]4(C)[C@H]3CC[C@]12C [BIO101, 20-hydroxyecdysone] | significantly reduces | 37.5% | – | – | – | 14.1% | 62.5% |
